Series [1] is described as follows: Base-catalysed (alkaline) hydrolysis with LiOH in THF:H2O. Particulars: for half-life at 2.5 g/L: LiOH in tetrahydrofuran/water (6:4).
Experimental: (§1) The reaction was started by adding LiOH (24 μL, 1 mol/l), and the mixture was incubated at 37 °C for 5, 10, 20, and 30 min, under stirring in a water bath. At the end of the incubation period, an aliquot (20 μL) was transferred to a new tube, and subsequently, HCl (0.3 μL, 10% v:v) was added. The pH of the sample was checked to verify neutralisation, and acetonitrile (480 μL) was added. The final concentrations of all compounds in the solution were 2,5 g/L. Finally, the samples were filtered through PVDF syringe filters (Millex®: 0.22 µm pore size) and analysed by HPLC[15].
(§2) A Shimadzu Prominence HPLC system (Shimadzu, Tokyo, Japan) consisting of a UV/VIS Photodiode Array Detector (SPD-M20A), a binary pump (LC-20AD), a vacuum degasser (DGU-20A5), and an autosampler (SIL-20A) was used for analyses. The Chromatographic separation was achieved using a reversed phase (Kromasil® C18 HPLC Column: particle size 5 µm, L × I.D. 250 × 4.6 mm) preceded by a guard column (Phenomenex® C18: 4 × 3 mm). The column was held at ambient temperature (22 ± 2 °C). For the selection of the wavelength, the diode array-detector was used. To avoid interference with impurities, the longest suitable wavelength was chosen to evaluate the chromatograms, which allowed for sensitivity. The mobile phase was a combination of eluent A (0.1% formic acid) and eluent B (acetonitrile). Three mobile phases were carried out using an injection volume of 20 µL and an flow rate set at 1.0 ml/min. […] A:B 40:60 v/v. […] A:B 90:10 v/v; 4–8 min. linear-gradient from 90% A to A:B 60:40 v/v; 8–12 min. A:B 60:40 v/v.
(§3) The time in minutes required to reduce half the initial amount of each ester compound (i.e., half-life - t1/2) was calculated using the expression t1/2 = 0.693/a, with "a" being the slope of the natural log of concentration of the sample vs. the incubation time.
The nature of series [2]: Rat plasma hydrolytic study. The conditions noted are these: for half-life at 500 μM: male, Wistar, rat, rat plasma (80% in phosphate buffer), pH 7.4.
Experimental: (§4) Rat plasma was obtained from male Wistar rats’ blood and diluted in phosphate buffer (pH 7.4) to obtain a final plasma concentration of 80%. […] The sample was incubated at 37 °C for 5, 10, 20, and 30 min, under stirring. At the end of the incubation time, the reaction was stopped by adding methanol (500 μL) and acetonitrile (500 μL), both in ice-cold temperature. The mixture was centrifuged at 13.500 rpm for 15 min at 4 °C. The organic phase was transferred to a microtube, and the IS (1.25 µL) was added. Finally, the samples were filtered through PVDF syringe filters (Millex®: 0.22 µm pore size) and analysed by HPLC[16].
as §2
(§5) The biologic hydrolysis of the esters 1–12 was carried out using rat plasma and rat liver microsomes. Each compound's half-life (t1/2) was calculated using the expression t1/2 = 0.693/a, as previously described.
The subject of the next series is carboxylesterase (CES). Description: Enzymatic inhibition study in rat plasma with CES inhibitor bis(p-nitrophenyl)phosphate. The conditions noted are these: bis(p-nitrophenyl)phosphate 1, 10, 100 µM; ester 500 µM, 90 min. In kind it is in vitro ADME. On the procedure: The inhibitor was pre-incubated for 30 min at 37 °C, with (i) plasma (ii) rat liver microsomes and phosphate buffer pH 7,4 (final volume of 250 µL). […] The mixture was incubated again at 37 °C for 90 min under agitation. The analysis was performed by the same HPLC method used in the previous experiments. […] Data were expressed as percentages of inhibition.

Series [3] is described as follows: Hydrolytic study using rat liver microsomes. In kind it is in vitro ADME. Particulars: male, Wistar, 1 mg/mL microsomal fraction, absence of cofactor, 37 °C, read-out: Hydrolysis t1/2 Rat liver microsomes. As to the method:
Rat liver microsomes were obtained from male Wistar rats (280–330 g) and prepared according to the methodology described by Cabrera and co-workers[17]. After obtaining rat liver microsomes, the protein quantification was done by a bicinchoninic acid assay using a commercial protein determination kit obtained from Sigma-Aldrich (St Louis MO, USA)[18]. […] The reaction was stopped by adding organic solvents at ice-cold temperature (i.e., 500 µL of methanol and 500 µL of acetonitrile).
(ii) Compounds 8–9: 0–15 min. A:B 40:60 v/v. (iii) Compounds 13–16: 0–4 min. […] A:B 60:40 v/v.
Given those results, we decided to study the comparative metabolic behaviour of the esters 1 and 2, 5 and 6, 11 and 12, using another biological matrix rich in carboxylesterases. Therefore, the kinetics of hydrolysis was established using rat liver microsomes in the absence of cofactor in order to prevent eventual oxidative metabolic reactions catalysed by CYP450 or FMO.

For series [4] the following is noted: pH 7.4.
Experimental: as §4, §2, §5
For series [5] the following is noted: buffer.
Experimental: as §1, §2, §3
Where [6] appears, read: Hydrolysis t1/2 Alkaline, LiOH, THF:H2O, 37 °C.

Read-outs that look alike come from different tables or passages of the source.

From publication PMC8856110, “Comparative chemical and biological hydrolytic stability of homologous esters and isosteres” (Journal of Enzyme Inhibition and Medicinal Chemistry, 2022) come the findings set out here.

Regarding `COC(=O)Cc1ccccc1` [Compound 8, methyl 2-phenylacetate], the half-life at 2.5 g/L in series [1] (setting [6]) turned out to be 39 min. Further, in series [2], the half-life at 500 μM is 3 min. Besides, in series [2] (rat plasma, versus ester 1), the “Loss of plasma metabolic stability relative to ester 1” value is “twelve times less stable”.

In the case of `CCOC(=O)c1ccc(N)cc1` [Compound 13, ethyl 4-aminobenzoate, reference compound], the half-life at 500 μM in series [2] stood at 13 min.

As to `CCOC(=O)c1ccccc1` [Compound 2, ethyl benzoate], the “Metabolism in rat plasma in the presence of the CES inhibitor” value with carboxylesterase (CES) is listed as “strongly reduced”. Moreover, the half-life at 2.5 g/L in series [1] (setting [6]) was 15 min. Besides, in series [1] (LiOH, THF:H2O, 37 °C), the “Hydrolysis t1/2 Alkaline” value is listed as 14 min. This compound gave a half-life at 500 μM in series [2] of 17 min. For the same compound, the half-life in series [3] stood at 12 min.

`O=C(OCc1ccccc1)c1ccccc1` [Compound 6, benzyl benzoate] showed a half-life at 2.5 g/L in series [1] of 16 min. In series [2], the half-life at 500 μM came to 12 min. In series [3], the half-life worked out at 13 min.

Turning to `CCOC(=O)c1ccccc1Br` [Compound 10, ethyl 2-bromobenzoate], the half-life at 2.5 g/L in series [1] was found to be 15 min. Also, the half-life at 500 μM in series [2] worked out at 10 min.

In series [1] (setting [6]), `CC(=O)Oc1ccccc1` [Compound 9] yielded a half-life at 2.5 g/L of 58 min. The half-life at 500 μM in series [2] is 19 min.

In the case of `CCOC(=O)c1ccc(Br)cc1` [Compound 12, ethyl 4-bromobenzoate], the half-life at 2.5 g/L in series [1] was found to be 12 min. The half-life at 500 μM in series [2] amounted to 12 min. In addition, the half-life in series [3] came to 10 min.

In turn, `CCCOC(=O)c1ccccc1` [Compound 3, n-propyl benzoate] had a half-life at 2.5 g/L in series [1] of 19 min. Also, in series [2], the half-life at 500 μM is 10 min.

In series [1], `O=C(Oc1ccccc1)c1ccccc1` [Compound 5, phenyl benzoate] displayed a half-life at 2.5 g/L of 11 min. Also, in series [2], the half-life at 500 μM came out at 7 min. Besides, the half-life in series [3] came out at 10 min.

In turn, `COC(=O)c1ccccc1` [Compound 1, methyl benzoate] displayed a half-life at 2.5 g/L in series [1] of 14 min. The half-life at 500 μM in series [2] was 36 min. The half-life in series [3] was determined as 15 min.

Turning to `COC(=O)c1ncn2c1CN(C)C(=O)c1cc(F)ccc1-2` [Compound 16, methyl 8-fluoro-5-methyl-6-oxo-4H-imidazo[1,5-a][1,4]benzodiazepine-3-carboxylate], in series [2], the half-life at 500 μM is 238 min.

`COC(=O)c1ccc(N)cc1` [Compound 14, methyl 4-aminobenzoate] yielded a half-life at 500 μM in series [2] of 27 min.

For the compound `CCOC(=O)c1ncn2c1CN(C)C(=O)c1cc(F)ccc1-2` [Compound 15, flumazenil, reference compound], in series [2], the half-life at 500 μM is 89 min. Further, in series [2] (rat plasma, versus 16), the “Times less stable to plasma hydrolysis than methyl homologous 16” value is 2.7 times.

For methyl 2-naphthoate [Compound 7], in series [4], the “Hydrolysis t1/2 Rat plasma” value stood at 17 min. Besides, the “Hydrolysis t1/2 Alkaline” value in series [5] turned out to be 29 min.

With `CCOC(=O)c1cccc(Br)c1` [Compound 11, ethyl 3-bromobenzoate], the half-life at 2.5 g/L in series [1] was determined as 25 min. The half-life at 500 μM in series [2] was determined as 11 min. In addition, in series [3], the half-life stood at 12 min.

Turning to `CCCCOC(=O)c1ccccc1` [Compound 4, n-butyl benzoate], the half-life at 2.5 g/L in series [1] amounted to 21 min. The same compound registered a half-life at 500 μM in series [2] of 10 min.
